Patent publication US20220017566A1, “TERPINOID DERIVATIVES AND USES THEREOF” (SICHUAN HAISCO PHARMACEUTICAL CO., LTD., priority 2018, published 2022)
Read-outs that look alike come from different tables or passages of the source.

Assays:
[1] = test system: IFNγ-induced NO production in Raw 264.7 cells; test: Nitric oxide assay: suppression of IFNγ-induced NO production (Griess nitrite, adjusted to live cell numbers); assay type: cell-based; conditions: Mus musculus, RAW264.7, 2 h pretreatment, IFNγ 10 ng/ml for 24 hours
Summary of the method: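 Raw 264.7 cells in DMEM + 2% FBS were pretreated 2 h with compound (10-point, 1:4 dilution from 100 nM), then stimulated with 10 ng/ml mouse IFNγ for 24 h. Media nitrite was read by Griess and normalised to CellTiter-Glo viability. IC50 from four-parameter fit of % inhibition.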

[2] = test system: NQO1; test: NQO1 activity assay in Raw264.7 cell lysates; assay type: cell-based; conditions: Mus musculus; Raw264.7 cells, 48 hours treatment
Protocol: Raw264.7 cells were seeded in DMEM+10% FBS in 96-well plates at a density of 10,000 cells per well. 6 hours after plating, cells were treated with DMSO or test compounds (top dose 100 nM, 1:4 serial dilution, 8-point) for 48 hours. NQO1 activity was then detected in cell lysates using NQO1 activity assay kit (Abeam, Cat#ab184867). NQO1 activity was then plotted against compound concentration, and EC50 values were calculated using four-parameter algorithm in Graphpad Prism.

[3] = target: T1, CYP1A2 (Homo sapiens, UniProt P05177); test: CYP450 enzyme inhibition in liver microsomes (cocktail probe incubation); assay type: in vitro ADME; conditions: species not given, 0.05-50 μM tested
T1 construct: studied in liver microsomes of CD-1 mouse, Sprague Dawley rat, Beagle dog, cynomolgus monkey, and human; from tissue; host or cells: liver microsomes
T1 sequence (P05177 1-516): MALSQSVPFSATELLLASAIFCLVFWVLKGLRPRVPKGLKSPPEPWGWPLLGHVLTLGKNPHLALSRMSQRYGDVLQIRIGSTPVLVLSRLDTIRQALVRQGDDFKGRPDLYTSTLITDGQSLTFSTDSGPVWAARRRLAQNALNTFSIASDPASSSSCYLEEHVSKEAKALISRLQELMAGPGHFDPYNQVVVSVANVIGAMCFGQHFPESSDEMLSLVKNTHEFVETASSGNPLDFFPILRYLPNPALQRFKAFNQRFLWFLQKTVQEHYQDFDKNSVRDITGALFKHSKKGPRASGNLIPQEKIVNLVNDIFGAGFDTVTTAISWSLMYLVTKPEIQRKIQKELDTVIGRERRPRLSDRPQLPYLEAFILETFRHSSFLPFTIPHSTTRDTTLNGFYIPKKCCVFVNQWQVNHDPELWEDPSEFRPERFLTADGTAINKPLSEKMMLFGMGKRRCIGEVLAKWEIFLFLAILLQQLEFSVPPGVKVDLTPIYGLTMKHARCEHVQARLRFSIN
Summary of the method: (§1)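 Liver microsomes (CD-1 mouse, SD rat, Beagle dog, cynomolgus monkey, human) incubated with a cocktail of CYP-specific probe substrates. Test compounds at seven concentrations (0.05, 0.15, 0.5, 1.5, 5, 15, 50 μM). Known inhibitors included as positive controls at a single concentration above their IC50.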

[4] = target: T2, CYP2C19 (Homo sapiens, UniProt P33261); test: as above; assay type: in vitro ADME; conditions: species not given, 0.05-50 μM tested
T2 construct: studied in liver microsomes of CD-1 mouse, Sprague Dawley rat, Beagle dog, cynomolgus monkey, and human; from tissue; host or cells: liver microsomes
T2 sequence (P33261 whole entry): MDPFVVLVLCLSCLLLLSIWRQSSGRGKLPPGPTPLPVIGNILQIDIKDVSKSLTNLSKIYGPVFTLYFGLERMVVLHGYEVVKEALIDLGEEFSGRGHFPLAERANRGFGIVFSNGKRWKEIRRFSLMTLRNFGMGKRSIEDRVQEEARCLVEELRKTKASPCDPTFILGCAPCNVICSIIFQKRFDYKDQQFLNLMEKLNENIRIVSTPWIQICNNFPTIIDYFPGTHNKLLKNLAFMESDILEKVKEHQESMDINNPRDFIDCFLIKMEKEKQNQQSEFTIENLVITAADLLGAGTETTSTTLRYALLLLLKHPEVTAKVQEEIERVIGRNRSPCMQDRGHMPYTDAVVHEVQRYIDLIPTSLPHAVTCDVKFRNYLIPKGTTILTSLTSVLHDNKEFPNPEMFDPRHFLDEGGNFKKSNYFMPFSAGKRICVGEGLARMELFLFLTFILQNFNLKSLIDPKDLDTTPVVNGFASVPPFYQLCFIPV
Summary of the method: as §1

[5] = target: T3, CYP2C9 (Homo sapiens, UniProt P11712); test: as above; assay type: in vitro ADME; conditions: species not given, 0.05-50 μM tested
T3 construct: studied in liver microsomes of CD-1 mouse, Sprague Dawley rat, Beagle dog, cynomolgus monkey, and human; from tissue; host or cells: liver microsomes
T3 sequence (P11712 whole entry): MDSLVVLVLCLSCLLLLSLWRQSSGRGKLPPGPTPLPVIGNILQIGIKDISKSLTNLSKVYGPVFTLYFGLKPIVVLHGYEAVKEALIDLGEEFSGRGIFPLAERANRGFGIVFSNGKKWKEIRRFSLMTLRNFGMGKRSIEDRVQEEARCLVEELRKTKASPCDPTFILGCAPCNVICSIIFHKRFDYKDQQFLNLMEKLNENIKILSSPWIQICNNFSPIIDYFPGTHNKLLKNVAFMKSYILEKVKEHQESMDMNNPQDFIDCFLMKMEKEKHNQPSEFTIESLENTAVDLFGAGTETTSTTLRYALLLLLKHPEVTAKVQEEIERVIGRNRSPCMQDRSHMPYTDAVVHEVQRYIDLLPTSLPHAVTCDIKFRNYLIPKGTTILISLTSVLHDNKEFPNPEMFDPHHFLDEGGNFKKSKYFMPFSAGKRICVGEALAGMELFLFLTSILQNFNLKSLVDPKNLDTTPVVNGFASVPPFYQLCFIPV
Summary of the method: as §1

[6] = target: T4, CYP2D6 (Homo sapiens, UniProt P10635); test: as above; assay type: in vitro ADME; conditions: species not given, 0.05-50 μM tested
T4 construct: studied in liver microsomes of CD-1 mouse, Sprague Dawley rat, Beagle dog, cynomolgus monkey, and human; from tissue; host or cells: liver microsomes
T4 sequence (P10635 whole entry): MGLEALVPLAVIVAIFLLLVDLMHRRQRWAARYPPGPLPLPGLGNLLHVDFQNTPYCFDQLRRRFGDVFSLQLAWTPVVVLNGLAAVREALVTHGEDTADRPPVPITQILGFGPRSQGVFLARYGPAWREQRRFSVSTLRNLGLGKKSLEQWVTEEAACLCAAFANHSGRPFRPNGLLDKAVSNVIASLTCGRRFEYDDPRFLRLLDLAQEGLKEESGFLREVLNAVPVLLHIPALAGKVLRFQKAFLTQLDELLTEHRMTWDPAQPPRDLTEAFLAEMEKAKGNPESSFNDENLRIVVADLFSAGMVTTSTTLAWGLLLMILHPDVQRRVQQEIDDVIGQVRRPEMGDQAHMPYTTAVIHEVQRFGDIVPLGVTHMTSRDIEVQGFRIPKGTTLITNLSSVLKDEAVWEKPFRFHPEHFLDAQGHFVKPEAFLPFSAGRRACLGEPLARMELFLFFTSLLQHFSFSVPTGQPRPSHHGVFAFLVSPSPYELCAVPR
Summary of the method: as §1

[7] = target: T5, CYP3A4 (Homo sapiens, UniProt P08684); test: as above; assay type: in vitro ADME; conditions: species not given, 0.05-50 μM tested
T5 construct: studied in liver microsomes of CD-1 mouse, Sprague Dawley rat, Beagle dog, cynomolgus monkey, and human; from tissue; host or cells: liver microsomes
T5 sequence (P08684 whole entry): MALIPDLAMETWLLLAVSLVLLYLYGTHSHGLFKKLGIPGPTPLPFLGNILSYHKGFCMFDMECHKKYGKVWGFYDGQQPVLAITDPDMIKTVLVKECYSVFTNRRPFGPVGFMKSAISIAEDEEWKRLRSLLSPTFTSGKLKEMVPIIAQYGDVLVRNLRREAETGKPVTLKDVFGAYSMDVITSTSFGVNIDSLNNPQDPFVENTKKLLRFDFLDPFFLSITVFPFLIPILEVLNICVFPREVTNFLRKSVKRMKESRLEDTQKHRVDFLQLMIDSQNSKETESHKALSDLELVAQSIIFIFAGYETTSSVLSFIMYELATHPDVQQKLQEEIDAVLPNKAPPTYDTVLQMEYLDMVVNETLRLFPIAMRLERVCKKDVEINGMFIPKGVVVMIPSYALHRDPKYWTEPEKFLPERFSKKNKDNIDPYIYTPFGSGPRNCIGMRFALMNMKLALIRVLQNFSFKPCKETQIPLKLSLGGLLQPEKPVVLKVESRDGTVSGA
Summary of the method: as §1

[8] = Metabolic stability in human liver microsomes; assay type: in vitro ADME
Protocol: (§2) The metabolic stability of test compounds was examined in CD-1 mouse, Sprague Dawley rat, Beagle dog, cynomolgus monkey, and human liver microsomes. Test compound (final concentration 1 μM) was mixed with diluted liver microsomes from each of the 5 species and a small aliquot was taken at 0, 5, 10, 20, 30, and 60 minutes for LC/MS/MS analysis. Intrinsic clearance and half-life were calculated.

[9] = Metabolic stability in rat liver microsomes; assay type: in vitro ADME; conditions: Sprague Dawley
Protocol: as §2

[10] = Metabolic stability in mouse liver microsomes; assay type: in vitro ADME, CD-1 mouse; conditions: CD-1
Protocol: as §2

[11] = Metabolic stability in dog liver microsomes; assay type: in vitro ADME; conditions: Beagle
Protocol: as §2

[12] = Metabolic stability in monkey liver microsomes; assay type: in vitro ADME, cynomolgus monkey
Protocol: as §2

[13] = Pharmacokinetic studies in Sprague Dawley rats (oral gavage and IV); assay type: in vivo; conditions: rat, male SD rats, plasma; for AUC(0-t): read-out: AUC0-24 h; for bioavailability: oral 5 mg/kg vs IV 1 mg/kg, read-out: Bioavailibility F %
Protocol: The pharmacokinetics of test compounds was evaluated in male SD rats when administered via oral gavage and IV injection. For oral dosing, compound was formulated in 0.5% methylcellulose and administered at doses of 5 mg/kg (3 rats per dose level) and volume of 10 mL/kg. For IV dosing, compound was formulated in 5% DMSO/5% Solutol/90% saline and administered to 3 rats at a dose of 1 mg/kg and a volume of 5 mL/kg. The rats were fasted overnight before administration. Plasma samples were collected predose and at 0.5, 1, 3, 6, 9, 12, and 24 hours postdose. The samples were analyzed by LC/MS/MS and the concentration of test compound at each timepoint was determined by linear regression. Pharmacokinetic parameters were calculated from the plasma concentrations using Pheonix WinNonlin.

Row | IC50 [1] | EC50 [2] | IC50 [3] | IC50 [4] | IC50 [5] | IC50 [6] | IC50 [7] | CLint scaled at 1 μM [8] | half-life at 1 μM [8] | CLint scaled at 1 μM [9] | half-life at 1 μM [9] | CLint scaled at 1 μM [10] | half-life at 1 μM [10] | CLint scaled at 1 μM [11] | half-life at 1 μM [11] | CLint scaled at 1 μM [12] | half-life at 1 μM [12] | C0 ([13]; IV (1 mg/kg)) | clearance ([13]; IV (1 mg/kg)) | half-life ([13]; IV (1 mg/kg)) | Structure (SMILES) | further results
1 | < 0.01 µM | < 0.01 µM | > 50 µM | > 50 µM | 27.6 µM | > 50 µM | 14.6 µM | 184 mL/min/kg | 6.8 min | 161 mL/min/kg | 15.5 min | 402 mL/min/kg | 13.7 min | 77.3 mL/min/kg | 25.8 min | 752 mL/min/kg | 2.5 min | 1040 ng/mL | 56.3 mL/min/kg | 282 min | CC1(C)C(=O)C(C#N)=C[C@]2(C)C3=CC(=O)[C@@H]4[C@@H]5C[C@@](C)(N6CC(O)C6)CC[C@]5(C)CC[C@@]4(C)[C@]3(C)CC[C@@H]12 [Example 26, (4aR,6aS,6bR,8aS,11S,12aS,14bS)-11-(3-hydroxyazetidin-1-yl)-4,4,6a,6b,8a,11,14b-heptamethyl-3,13-dioxo-3,4,4a,5,6,6a,6b,7,8,8a,9,10,11,12,12a,12b,13,14b-octadecahydropicene-2-carbonitrile] | AUC(0-t) ([13]; IV (1 mg/kg)): 294 ng·h/mL; Cmax ([13]; Oral (5 mg/kg)): 57 ng/mL; half-life ([13]; Oral (5 mg/kg)): 216 min; AUC(0-t) ([13]; Oral (5 mg/kg)): 270 ng·h/mL; bioavailability [13]: 18.3%
2 | < 0.01 µM | < 0.01 µM | > 50 µM | 5.2 µM | 1.7 µM | > 50 µM | 2.6 µM | 95.4 mL/min/kg | 13.1 min | 832 mL/min/kg | 3 min | 180 mL/min/kg | 30.6 min | 78 mL/min/kg | 25.6 min | 949 mL/min/kg | 2 min | 365 ng/mL | 56.8 mL/min/kg | 378 min | COC(=O)[C@]12CCC(C)(C)C[C@H]1[C@H]1C(=O)C=C3[C@@]4(C)C=C(C#N)C(=O)C(C)(C)[C@@H]4CC[C@@]3(C)[C@]1(C)CC2 [Control, reference compound] | AUC(0-t) ([13]; IV (1 mg/kg)): 291 ng·h/mL; Cmax ([13]; Oral (5 mg/kg)): 7 ng/mL; half-life ([13]; Oral (5 mg/kg)): 204 min; AUC(0-t) ([13]; Oral (5 mg/kg)): 26 ng·h/mL; bioavailability [13]: 1.8%
3 | < 0.01 µM | < 0.01 µM | > 50 µM | 11.8 µM | 2.7 µM | 15 µM | 1 µM | 168 mL/min/kg | 7.4 min | 42 mL/min/kg | 59.4 min | 423 mL/min/kg | 13 min | 37 mL/min/kg | 54 min | 269 mL/min/kg | 7 min | 349 ng/mL | 63.8 mL/min/kg | 102 min | Cc1nnc([C@@]2(C)CC[C@]3(C)CC[C@]4(C)[C@H](C(=O)C=C5[C@@]6(C)C=C(C#N)C(=O)C(C)(C)[C@@H]6CC[C@]54C)[C@@H]3C2)o1 [Example 1, (4aR,6aS,6bR,8aS,11S,12aS,12bR,14bS)-4,4,6a,6b,8a,11,14b-heptamethyl-11-(5-methyl-1,3,4-oxadiazol-2-yl)-3,13-dioxo-3,4,4a,5,6,6a,6b,7,8,8a,9,10,11,12,12a,12b,13,14b-octadecahydropicene-2-carbonitrile] | AUC(0-t) ([13]; IV (1 mg/kg)): 258 ng·h/mL; Cmax ([13]; Oral (5 mg/kg)): 170 ng/mL; half-life ([13]; Oral (5 mg/kg)): 132 min; AUC(0-t) ([13]; Oral (5 mg/kg)): 1100 ng·h/mL; bioavailability [13]: 83.8%
